In one assay the test system is PC3 (prostate). The assay can be described thus: In vitro cytotoxic activity (MTT) assay, PC3. The following applies: Homo sapiens; PC3 (prostate) cells, exposed for 96 hours, 50% inhibition of cell proliferation; read-out: Cytotoxicity activity IC50. Format: cell-based. The protocol:
(§1) Compounds 1-16 were screened for their in vitro cytotoxic activity utilizing a 3-(4,5-dimethyl-thiazol-2-yl)-2,5-diphenyltetrazolium bromide (MTT) assay against selected cancer human cell lines consisting of PC3 (prostate), HCT116 (colon), A375 (melanoma), H1299 (lung), MIAPaCa-2 (pancreas), HL60 (leukemia), MCF7 (breast), MDA-MB-231 (breast) (T. Mosmann, J. Immunol. Meth., 1983, 65, 55-63). The cells were cultured at 37° C. in RMPI1640 medium supplemented with 10% fetal bovine serum, 50 IU/mL penicillin, and 50 μg/mL streptomycin in a 5% CO2 incubator. All cells were sub-cultured 3 times/week by trypsinisation. Viable cells were seeded and allowed to adhere for 12 hours before a test drug was added in 96-well plates at an initial density of 1.0×10^5 cells/mL. Tumor cell lines were separately exposed to various concentrations of the tested compounds followed by incubation at a temperature of 37° C. during 96 hours inside a medium of fresh RMPI 1640. Cells were subsequently incubated at 37° C. using MTT at 0.5 mg/mL during 4 hours. After removal of supernatant, formazan crystals were dissolved in isopropanol and the optical density was measured at 570 nm. CX-4945 was used as a positive control.

In another assay the test system is HCT116 (colon). The assay is described as follows: In vitro cytotoxic activity (MTT) assay, HCT116. The following applies: Homo sapiens, HCT-116; HCT116 (colon) cells, exposed for 96 hours, 50% inhibition of cell proliferation; read-out: Cytotoxicity activity IC50. Format: cell-based. The protocol:
as §1

Another assay deals with A375 (melanoma). The assay can be described thus: In vitro cytotoxic activity (MTT) assay, A375. The following applies: Homo sapiens, A-375; A375 (melanoma) cells, exposed for 96 hours, 50% inhibition of cell proliferation; read-out: Cytotoxicity activity IC50. It is filed as cell-based. The protocol:
as §1

The test system of another assay is H1299 (lung). The assay is described as follows: In vitro cytotoxic activity (MTT) assay, H1299. The following applies: Homo sapiens, NCI-H1299; H1299 (lung) cells, exposed for 96 hours, 50% inhibition of cell proliferation; read-out: Cytotoxicity activity IC50. Format: cell-based. As to the method: as §1
In another assay the test system is MIAPaCa-2 (pancreas). The assay can be described thus: In vitro cytotoxic activity (MTT) assay, MIAPaCa-2. Format: cell-based. The conditions noted are these: Homo sapiens, MIA PaCa-2; MIAPaCa-2 (pancreas) cells, exposed for 96 hours, 50% inhibition of cell proliferation; read-out: Cytotoxicity activity IC50. As to the method: as §1
The next assay concerns HL60 (leukemia). The assay can be described thus: In vitro cytotoxic activity (MTT) assay, HL60. It is filed as cell-based. The following applies: Homo sapiens, HL-60; HL60 (leukemia) cells, exposed for 96 hours, 50% inhibition of cell proliferation; read-out: Cytotoxicity activity IC50. As to the method: as §1
In a further assay the test system is MCF7 (breast). The assay can be described thus: In vitro cytotoxic activity (MTT) assay, MCF7. Format: cell-based. The following applies: Homo sapiens; MCF7 (breast) cells, exposed for 96 hours, 50% inhibition of cell proliferation; read-out: Cytotoxicity activity IC50. The protocol: as §1
The subject of the next assay is MDA-MB-231 (breast). The assay can be described thus: In vitro cytotoxic activity (MTT) assay, MDA-MB-231. It is filed as cell-based. The conditions noted are these: Homo sapiens; MDA-MB-231 (breast) cells, exposed for 96 hours, 50% inhibition of cell proliferation; read-out: Cytotoxicity activity IC50. The protocol: as §1
Assay [1] concerns the target T1, recombinant human CK2 (RRββ-holoenzyme) (Homo sapiens, UniProt P68400).
T1 construct: purchased Millipore
The assay can be described thus: CK2 Kinase Assay (33P-ATP, substrate peptide RRRDDDSDDD). Format: biochemical. The following applies: final ATP concentration 15 μM, 10 min at 30° C., eight concentrations; read-out: protein kinase CK2 inhibition IC50. As to the method:
CK2 Kinase Assay was conducted using the protocol as described in Pierre F. et al; J. Med. Chem. 2011, 54, 635-654. The tested compounds in aqueous solution were added at a volume of 10 μL to a reaction mixture comprising 10 μL of assay dilution buffer (ADB; 20 mM MOPS, pH 7.2, 25 mM β-glycerol phosphate, 5 mM EGTA, 1 mM sodium orthovanadate, and 1 mM dithiothreitol), 10 μL of substrate peptide (RRRDDDSDDD, dissolved in ADB at a concentration of 1 mM), 10 μL of recombinant human CK2 (RRββ-holoenzyme, 25 ng dissolved in ADB; Millipore). Reactions were initiated by the addition of 10 μL of ATP solution (90% 75 mMMgCl2, 75 μM ATP (final ATP concentration: 15 μM) dissolved in ADB; 10% [γ-33P] ATP (stock 1 mCi/100 μL; 3000 Ci/mmol (Perkin-Elmer) and maintained for 10 min at 30° C. The reactions were quenched with 100 μL of 0.75% phosphoric acid and then transferred to and filtered through a phosphor cellulose filter plate (Millipore). After washing each well five times with 0.75% phosphoric acid, the plate was dried under vacuum for 5 min and, following the addition of 15 μL of scintillation fluid to each well, the residual radioactivity was measured using a Wallac luminescence counter. The IC50 values were derived from eight concentrations of test inhibitors.

Each structure is given as a SMILES string.

One may read the IC50 as the point on the concentration scale where inhibition reaches its midpoint.

T1 sequence (P68400 whole entry): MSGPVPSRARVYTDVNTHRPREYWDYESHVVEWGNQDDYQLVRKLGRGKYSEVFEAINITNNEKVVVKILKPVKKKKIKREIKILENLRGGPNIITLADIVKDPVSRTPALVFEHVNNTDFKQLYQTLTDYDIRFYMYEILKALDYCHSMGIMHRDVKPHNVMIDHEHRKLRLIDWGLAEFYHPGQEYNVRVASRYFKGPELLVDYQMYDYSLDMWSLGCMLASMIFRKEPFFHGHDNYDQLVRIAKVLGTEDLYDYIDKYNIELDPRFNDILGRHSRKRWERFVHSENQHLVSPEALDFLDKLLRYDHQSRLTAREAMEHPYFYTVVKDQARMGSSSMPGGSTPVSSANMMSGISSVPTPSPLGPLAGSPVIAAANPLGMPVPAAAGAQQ
T1 sequence (P67870 whole entry partner): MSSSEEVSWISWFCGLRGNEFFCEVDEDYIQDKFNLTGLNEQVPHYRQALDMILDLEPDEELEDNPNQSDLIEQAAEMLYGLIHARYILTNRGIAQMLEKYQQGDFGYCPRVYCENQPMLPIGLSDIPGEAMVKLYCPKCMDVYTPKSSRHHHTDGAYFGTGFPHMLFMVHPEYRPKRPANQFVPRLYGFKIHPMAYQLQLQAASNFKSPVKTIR

Take `O=C(O)c1n[nH]c2c1c(Nc1cccc(Cl)c1)nc1ccncc12` [Compound 1, 4-((3-chlorophenyl)amino)-1H-pyrazolo[4,3-c][1,6]naphthyridine-3-carboxylic acid]: the IC50 in the assay on PC3 (prostate) was 2500 nM; in the assay with HCT116 (colon) it was 1700 nM; in the assay on A375 (melanoma), 3800 nM; in the assay on H1299 (lung), 1900 nM; with MIAPaCa-2 (pancreas), 1400 nM; in the assay with HL60 (leukemia), 2900 nM. For the same compound, the figures for the IC50 (with MCF7 (breast); in the assay on MDA-MB-231 (breast); in assay [1]) were 6300 nM, 5800 nM and 48 nM, respectively.

The values are drawn from US12024518B1, “Pyrazolo[4,3-C][1,6]naphthyridines as CK2 inhibitors” (KING FAISAL UNIVERSITY, priority 2023, dated 2024).
